From ChEMBL document CHEMBL1122029, “N2-(gamma-D-Glutamyl)-meso-2(L),2'(D)-diaminopimelic acid as the minimal prerequisite structure of FK-156: its acyl derivatives with potent immunostimulating activity” (1982)

Columns and labels:
[1] = organism: Cavia porcellus; experiment: Ability to induce delayed-type hypersensitivity to egg albumin in Hartley guinea pigs at the dose of 10 ug/site; type: functional; design: unit not given beside the values
[2] = organism: Cavia porcellus; experiment: Ability to induce delayed-type hypersensitivity to egg albumin in Hartley guinea pigs at the dose of 1 ug/site; type: functional
[3] = test system: Mus musculus; experiment: Phagocytic activity was assessed in a carbon clearance assay in male DDY mice at the dose of 1 mg/kg; type: functional, organism-based; design: dose 1 mg/kg
[4] = test system: Mus musculus; experiment: Phagocytic activity was assessed in a carbon clearance assay in male DDY mice at the dose of 0.1 mg/kg; type: functional, organism-based; design: dose 0.1 mg/kg
[5] = test system: Mus musculus; experiment: Antiinfectious effect against Escherichia coli 22 in ICR mice(10) at the dose of 0.1 mg/kg (i.p.) expressed as number of survivals; type: functional; conditions: route intraperitoneal
[6] = test system: Mus musculus; experiment: Antiinfectious effect against Escherichia coli 22 in ICR mice(10) at the dose of 1 mg/kg (i.p.) expressed as number of survivals; type: functional; conditions: route intraperitoneal
[7] = Phagocytic activity was assessed in a carbon clearance assay and stimulation index was reported in male DDY mice at the dose of 1 mg/kg; Kt/Kc; type: functional
[8] = Phagocytic activity was assessed in a carbon clearance assay and stimulation index was reported in male DDY mice at the dose of 0.1 mg/kg; Kt/Kc; type: functional
[9] = organism: Mus musculus; experiment: Tumor suppressive activity against meth-A fibrosarcoma in BALB/c mice(9) at the dose of 100 ug/site; type: functional
[10] = organism: Mus musculus; experiment: Tumor suppressive activity against meth-A fibrosarcoma in BALB/c mice (10) at the dose of 100 ug/site; type: functional
[11] = test system: Mus musculus; experiment: Phagocytic activity was assessed in a carbon clearance assay in male DDY mice at the dose of 10 mg/kg; type: functional, organism-based; design: dose 10 mg/kg
[12] = test system: Mus musculus; experiment: Antiinfectious effect against Escherichia coli 22 in ICR mice(10) at the dose of 1 mg/kg (i.p.) expressed as survivals; type: functional; conditions: route intraperitoneal
[13] = Phagocytic activity was assessed in a carbon clearance assay and stimulation index was reported in male DDY mice at the dose of 10 mg/kg; Kt/Kc; type: functional

SMILES | Skin response [1] | Skin response [2] | K [3] | K [4] | Survival [5] | Survival [6] | Ratio [7] | Ratio [8] | Suppression [9] | Suppression [10] | K [11] | Survival [12] | Ratio [13]
CCCCCCCC(=O)NC(CCC(=O)NC(CCCC(N)C(=O)O)C(=O)O)C(=O)O (centres undefined) | 3.7 | 8.3 | 0.048 | 0.032 | 7 | 6 | 2.4 | 1.6 | – | – | – | – | –
CCCCCCCCCCCCCCCCCC(=O)NC(CCC(=O)NC(CCCC(N)C(=O)O)C(=O)O)C(=O)O (centres undefined) | <3.1 | 1.7 | < 0.048 | 0.032 | 7 | 8 | 2.4 | 1.6 | 9 | – | – | – | –
CC(O)C(=O)NC(C)C(=O)NC(CCC(=O)NC(CCCC(N)C(=O)O)C(=O)NCC(=O)O)C(=O)O (centres undefined) | 10 | 8.2 | 0.038 | 0.029 | 6 | 7 | 1.9 | 1.5 | – | 0 | – | – | –
NC(CCCC(NC(=O)CCC(N)C(=O)O)C(=O)O)C(=O)O (centres undefined) | 6.9 | 3.3 | 0.021 | – | 4 | – | 1.1 | – | – | – | 0.058 | 4 | 2.9
